In patent US20260174179A1, “ANTI-INFECTIVE SHOE SOLES” (priority 2019, published 2026):

Test system: Pseudomonas aeruginosa (PAO)
Experiment: Kirby-Bauer disk diffusion test, agar overlay culture
Type: cell-based
Details: 6 mm disk, 24 hours at 37° C.
Description: FIG. 13 is a schematic illustrating a Kirby-Bauer Disk Diffusion test. Bacterial cells are plated from a broth culture onto sterile agar petri dishes, and antibiotic soaked paper disks (or control disks without antibiotic) are placed directly on the dish. After 24 or more hours, a confluent layer of bacteria appear to grow up on the dish. Clearing or clear but hazy zones indicate antibiotic sensitivity of the test microbe. The size of the killing zone reflects how well the antibiotic diffuses into the agar and sensitivity of the organism.
FIG. 14A is an image showing the results of a Disk Diffusion test with Pseudomonas aeruginosa (PAO). Three disks were placed on a PAO/agar overlay culture: a penicillin-soaked paper disk, a negative control (no treatment) paper disk, and a sterile punch disk of pure elemental sheet copper, and the culture was incubated for 24 hours. Zones of inhibition are marked as clearing zones (dashed circles) where bacterial growth was stunted. […]
In some studies, a disk-diffusion test was used as a model for testing diffusion and bacterial targeting (FIG. 13). […] The bacteria were allowed to grow on the agar media, and growth was observed using a simple read-out: a zone of clearing around a disk indicated no bacterial growth, and conversely, the lack of a clearing perimeter indicated bacterial resistance. […]

penicillin
clearing extended from the edge of the disk: 5-7 mm | killing zone (FIG. 14A): 6 mm
